One experiment has as its target ERBB2 (Homo sapiens, UniProt P04626). Kind of experiment: KINOMEscan panel screen. Format: binding. The settings on record: read-out: Percent Control(%).
The target in the next experiment is T1, CSNK2A1 (Homo sapiens, UniProt P68400).
T1 construct: purchased DiscoveRx KINOMEscan (Ambit Biosciences)
Kind of experiment: KINOMEscan panel screen. Format: binding. The settings on record: read-out: Percent Control(%).

In another experiment the target is T2, DYRK2 (Homo sapiens, UniProt Q92630).
T2 construct: purchased DiscoveRx KINOMEscan (Ambit Biosciences)
T2 sequence (Q92630 whole entry): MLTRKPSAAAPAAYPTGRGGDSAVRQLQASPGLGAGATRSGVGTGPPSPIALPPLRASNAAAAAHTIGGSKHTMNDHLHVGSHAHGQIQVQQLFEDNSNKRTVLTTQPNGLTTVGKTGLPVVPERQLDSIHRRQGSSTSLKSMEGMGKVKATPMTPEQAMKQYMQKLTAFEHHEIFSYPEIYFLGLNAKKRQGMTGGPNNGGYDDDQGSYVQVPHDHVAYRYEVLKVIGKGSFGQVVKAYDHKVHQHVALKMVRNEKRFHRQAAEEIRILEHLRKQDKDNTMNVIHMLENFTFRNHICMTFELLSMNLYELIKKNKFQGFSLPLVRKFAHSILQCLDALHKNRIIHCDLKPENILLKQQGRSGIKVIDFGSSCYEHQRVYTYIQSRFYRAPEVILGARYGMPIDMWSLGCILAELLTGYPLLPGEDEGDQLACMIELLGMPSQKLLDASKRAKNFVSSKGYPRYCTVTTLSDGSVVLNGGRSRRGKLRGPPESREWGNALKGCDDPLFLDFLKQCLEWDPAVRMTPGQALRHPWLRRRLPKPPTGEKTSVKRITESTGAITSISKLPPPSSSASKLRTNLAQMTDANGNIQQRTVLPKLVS
As to the kind of experiment: KINOMEscan panel screen. Format: binding. The settings on record: read-out: Percent Control(%).

A further experiment addresses T3, LRRK2 (Homo sapiens, UniProt Q5S007).
T3 construct: purchased DiscoveRx KINOMEscan (Ambit Biosciences)
As to the kind of experiment: KINOMEscan panel screen. Format: binding. The settings on record: read-out: Percent Control(%).

The next experiment deals with T4, RIOK2 (Homo sapiens, UniProt Q9BVS4).
T4 construct: purchased DiscoveRx KINOMEscan (Ambit Biosciences)
As to the kind of experiment: KINOMEscan panel screen. It is filed as binding. The note with it: read-out: Percent Control(%).

Another experiment concerns the target T5, PIM1 (Homo sapiens, UniProt P11309).
T5 construct: purchased DiscoveRx KINOMEscan (Ambit Biosciences)
As to the kind of experiment: KINOMEscan panel screen. The note with it: read-out: Percent Control(%). Format: binding.

A further experiment deals with T6, MYO3B (Homo sapiens, UniProt Q8WXR4).
T6 construct: purchased DiscoveRx KINOMEscan (Ambit Biosciences)
As to the kind of experiment: KINOMEscan panel screen. It is filed as binding. The note with it: read-out: Percent Control(%).

A further experiment concerns the target T7, TLK1 (Homo sapiens, UniProt Q9UKI8).
T7 construct: purchased DiscoveRx KINOMEscan (Ambit Biosciences)
Kind of experiment: KINOMEscan panel screen. Format: binding. The note with it: read-out: Percent Control(%).

The next experiment addresses T8, TNK2 (Homo sapiens, UniProt Q07912).
T8 construct: purchased DiscoveRx KINOMEscan (Ambit Biosciences)
Kind of experiment: KINOMEscan panel screen. It is filed as binding. The note with it: read-out: Percent Control(%).

A further experiment has as its target T9, HPK1 (Homo sapiens, UniProt Q92918).
T9 construct: purchased DiscoveRx KINOMEscan (Ambit Biosciences)
Kind of experiment: KINOMEscan panel screen. Format: binding. The settings on record: read-out: Percent Control(%).

The target in another experiment is T10, PRKCQ (Homo sapiens, UniProt Q04759).
T10 construct: purchased DiscoveRx KINOMEscan (Ambit Biosciences)
Kind of experiment: KINOMEscan panel screen. The settings on record: read-out: Percent Control(%). It is filed as binding.

For the next experiment, the target named is T11, WEE2 (Homo sapiens, UniProt P0C1S8).
T11 construct: purchased DiscoveRx KINOMEscan (Ambit Biosciences)
T11 sequence (P0C1S8 whole entry): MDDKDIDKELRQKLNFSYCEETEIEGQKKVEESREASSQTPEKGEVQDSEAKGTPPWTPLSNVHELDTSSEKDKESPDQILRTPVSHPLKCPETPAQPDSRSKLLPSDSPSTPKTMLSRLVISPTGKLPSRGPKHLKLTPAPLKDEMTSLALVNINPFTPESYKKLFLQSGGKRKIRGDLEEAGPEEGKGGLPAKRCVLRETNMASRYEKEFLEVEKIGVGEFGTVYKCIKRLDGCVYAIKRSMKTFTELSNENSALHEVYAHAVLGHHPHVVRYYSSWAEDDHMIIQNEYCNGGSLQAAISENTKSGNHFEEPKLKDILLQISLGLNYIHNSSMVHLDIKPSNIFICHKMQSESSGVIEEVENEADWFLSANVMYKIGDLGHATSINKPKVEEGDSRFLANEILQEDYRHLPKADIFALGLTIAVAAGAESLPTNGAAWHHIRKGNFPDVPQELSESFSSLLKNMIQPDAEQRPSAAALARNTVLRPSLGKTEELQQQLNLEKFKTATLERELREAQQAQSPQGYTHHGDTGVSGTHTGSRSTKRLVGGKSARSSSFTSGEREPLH
Kind of experiment: KINOMEscan panel screen. Format: binding. The note with it: read-out: Percent Control(%).

Experiment [1] concerns the target T12, RSK3(Kin.Dom.1-N-terminal) (Homo sapiens, UniProt Q15349).
T12 construct: RSK3(Kin.Dom.1-N-terminal); purchased DiscoveRx KINOMEscan (Ambit Biosciences)
As to the kind of experiment: KINOMEscan panel screen. Format: binding. The settings on record: read-out: Percent Control(%).

For another experiment, the system named is Molm-13. Kind of experiment: MTT cell viability assay. The settings on record: Homo sapiens, MOLM-13, 72 h. In general terms: Formazan colour is commonly taken as a measure of viable cells.
The target of the next experiment is T13, CSNK1A1L (Homo sapiens, UniProt Q8N752).
T13 construct: purchased DiscoveRx KINOMEscan (Ambit Biosciences)
As to the kind of experiment: KINOMEscan panel screen. It is filed as binding. The settings on record: read-out: Percent Control(%).

A further experiment addresses T14, PIK4CB (Homo sapiens, UniProt Q9UBF8).
T14 construct: purchased DiscoveRx KINOMEscan (Ambit Biosciences)
Kind of experiment: KINOMEscan panel screen. It is filed as binding. The settings on record: read-out: Percent Control(%).

A further experiment has as its target T15, PRKCH (Homo sapiens, UniProt P24723).
T15 construct: purchased DiscoveRx KINOMEscan (Ambit Biosciences)
As to the kind of experiment: KINOMEscan panel screen. The settings on record: read-out: Percent Control(%). It is filed as binding.

Another experiment concerns the target T16, CSNK1G2 (Homo sapiens, UniProt P78368).
T16 construct: purchased DiscoveRx KINOMEscan (Ambit Biosciences)
As to the kind of experiment: KINOMEscan panel screen. It is filed as binding. The settings on record: read-out: Percent Control(%).

In another experiment the target is T17, PIP5K2C (Homo sapiens, UniProt Q8TBX8).
T17 construct: purchased DiscoveRx KINOMEscan (Ambit Biosciences)
Kind of experiment: KINOMEscan panel screen. The settings on record: read-out: Percent Control(%). Format: binding.

The subject of another experiment is normal PBMCs. As to the kind of experiment: Long-term culture-initiating cell (LTC-IC) assay. Format: cell-based, human. The settings on record: 10 nM and 50 nM. The protocol: (§1) In addition to the SP cell assay, we also evaluated the effects of SKLB-677 on the long-term culture-initiating (LTC-IC) cells; the long-term culture of LTC-IC cells can be used as surrogate markers of self-renewal capacity. SKLB-677 treated primary AML PBMCs or normal PBMCs were co-cultured with M2-10B4 stromal cells for 6 weeks, and then the colony formation capacity of LTC-IC cells were determined. In this assay, three primary AML PBMC samples and three normal PBMC samples were included, and each sample was conducted in triplicate.
(§2) PBMCs from AML patients (n = 3) and normal people (n = 3) were plated on M2-10B4 feeder cell layers (irradiated with 8000cGy) established in 6-well plates in HLTM medium (Myelocult H5100, […]) freshly supplemented with 10^−6 M hydrocortisone ([…]). Cultures were maintained with 0.1% DMSO or SKLB-677 for […] with weekly half-media changes, before seeding harvested cells into Colony-forming unit assays (cells were seeded in ultra-low attachment 6-well plates (Corning) in triplicate with the complete MethoCult Media ([…]) for 14 days). The assay for each sample was performed in triplicate. The colonies were counted under a microscope, and an obvious and visible cell cluster was considered a colony. The representative images were taken on an Axiovert 200 microscope with an AxiocamMRm camera with 0.30 aperture. Image acquisition software: AxioVisionRell 4.8.
(§3) Figure 4 The in vitro effects of SKLB-677 on leukemia side population (SP) cells and leukemia-initiating cells (LICs). (a) MV4-11 cells were stained with Hoechst 33342 after a treatment of SKLB-677 for 12 h. […] (b) The separated PBMCs were incubated on M2-10B4 stromal cells with SKLB-677 (1 nM and 10 nM for primary AML PBMCs, 10 nM and 50 nM for normal PBMCs) and/or 0.1% DMSO and then half medium replaced weekly for six weeks in long-term culture-initiating cells (LTC-IC) assays. Representative CAFCs (cobble stone area forming cells, the clusters of LTC-IC cells) are shown (left, black arrows).

The test system of another experiment is primary AML PBMCs. Kind of experiment: Long-term culture-initiating cell (LTC-IC) assay. It is filed as cell-based, human. The procedure: as §1, §2, §3

Read-outs that look alike come from different tables or passages of the source.

T9 sequence (Q92918 whole entry): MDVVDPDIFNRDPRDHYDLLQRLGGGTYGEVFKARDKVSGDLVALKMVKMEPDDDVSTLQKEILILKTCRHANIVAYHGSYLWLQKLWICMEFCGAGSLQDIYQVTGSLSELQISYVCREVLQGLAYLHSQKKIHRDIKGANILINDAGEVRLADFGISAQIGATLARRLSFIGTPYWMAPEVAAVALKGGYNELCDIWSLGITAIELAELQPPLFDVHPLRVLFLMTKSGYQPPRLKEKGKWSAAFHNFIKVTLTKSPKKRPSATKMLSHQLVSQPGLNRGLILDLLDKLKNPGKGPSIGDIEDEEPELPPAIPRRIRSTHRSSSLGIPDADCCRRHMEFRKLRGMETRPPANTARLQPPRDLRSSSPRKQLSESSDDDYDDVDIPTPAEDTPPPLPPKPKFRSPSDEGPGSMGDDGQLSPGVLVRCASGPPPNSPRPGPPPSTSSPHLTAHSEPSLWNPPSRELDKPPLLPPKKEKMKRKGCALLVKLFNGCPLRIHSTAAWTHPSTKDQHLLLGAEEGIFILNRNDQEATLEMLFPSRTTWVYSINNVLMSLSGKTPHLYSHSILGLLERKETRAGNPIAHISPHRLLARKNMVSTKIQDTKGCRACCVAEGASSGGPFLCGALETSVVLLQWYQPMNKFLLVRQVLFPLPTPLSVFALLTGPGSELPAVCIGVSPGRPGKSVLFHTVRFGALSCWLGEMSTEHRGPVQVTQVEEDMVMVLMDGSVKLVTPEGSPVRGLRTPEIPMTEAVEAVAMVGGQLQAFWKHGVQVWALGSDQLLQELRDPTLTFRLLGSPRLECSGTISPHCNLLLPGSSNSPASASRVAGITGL
T5 sequence (P11309 whole entry): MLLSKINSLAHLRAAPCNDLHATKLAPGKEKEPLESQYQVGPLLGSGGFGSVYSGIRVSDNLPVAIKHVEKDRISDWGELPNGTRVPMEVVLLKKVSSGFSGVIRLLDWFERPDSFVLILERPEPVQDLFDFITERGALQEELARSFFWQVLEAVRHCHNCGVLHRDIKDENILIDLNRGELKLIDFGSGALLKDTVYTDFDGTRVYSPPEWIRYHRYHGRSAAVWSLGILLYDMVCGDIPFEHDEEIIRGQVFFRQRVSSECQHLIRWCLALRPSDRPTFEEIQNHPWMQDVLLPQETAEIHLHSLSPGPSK
T3 sequence (Q5S007 whole entry): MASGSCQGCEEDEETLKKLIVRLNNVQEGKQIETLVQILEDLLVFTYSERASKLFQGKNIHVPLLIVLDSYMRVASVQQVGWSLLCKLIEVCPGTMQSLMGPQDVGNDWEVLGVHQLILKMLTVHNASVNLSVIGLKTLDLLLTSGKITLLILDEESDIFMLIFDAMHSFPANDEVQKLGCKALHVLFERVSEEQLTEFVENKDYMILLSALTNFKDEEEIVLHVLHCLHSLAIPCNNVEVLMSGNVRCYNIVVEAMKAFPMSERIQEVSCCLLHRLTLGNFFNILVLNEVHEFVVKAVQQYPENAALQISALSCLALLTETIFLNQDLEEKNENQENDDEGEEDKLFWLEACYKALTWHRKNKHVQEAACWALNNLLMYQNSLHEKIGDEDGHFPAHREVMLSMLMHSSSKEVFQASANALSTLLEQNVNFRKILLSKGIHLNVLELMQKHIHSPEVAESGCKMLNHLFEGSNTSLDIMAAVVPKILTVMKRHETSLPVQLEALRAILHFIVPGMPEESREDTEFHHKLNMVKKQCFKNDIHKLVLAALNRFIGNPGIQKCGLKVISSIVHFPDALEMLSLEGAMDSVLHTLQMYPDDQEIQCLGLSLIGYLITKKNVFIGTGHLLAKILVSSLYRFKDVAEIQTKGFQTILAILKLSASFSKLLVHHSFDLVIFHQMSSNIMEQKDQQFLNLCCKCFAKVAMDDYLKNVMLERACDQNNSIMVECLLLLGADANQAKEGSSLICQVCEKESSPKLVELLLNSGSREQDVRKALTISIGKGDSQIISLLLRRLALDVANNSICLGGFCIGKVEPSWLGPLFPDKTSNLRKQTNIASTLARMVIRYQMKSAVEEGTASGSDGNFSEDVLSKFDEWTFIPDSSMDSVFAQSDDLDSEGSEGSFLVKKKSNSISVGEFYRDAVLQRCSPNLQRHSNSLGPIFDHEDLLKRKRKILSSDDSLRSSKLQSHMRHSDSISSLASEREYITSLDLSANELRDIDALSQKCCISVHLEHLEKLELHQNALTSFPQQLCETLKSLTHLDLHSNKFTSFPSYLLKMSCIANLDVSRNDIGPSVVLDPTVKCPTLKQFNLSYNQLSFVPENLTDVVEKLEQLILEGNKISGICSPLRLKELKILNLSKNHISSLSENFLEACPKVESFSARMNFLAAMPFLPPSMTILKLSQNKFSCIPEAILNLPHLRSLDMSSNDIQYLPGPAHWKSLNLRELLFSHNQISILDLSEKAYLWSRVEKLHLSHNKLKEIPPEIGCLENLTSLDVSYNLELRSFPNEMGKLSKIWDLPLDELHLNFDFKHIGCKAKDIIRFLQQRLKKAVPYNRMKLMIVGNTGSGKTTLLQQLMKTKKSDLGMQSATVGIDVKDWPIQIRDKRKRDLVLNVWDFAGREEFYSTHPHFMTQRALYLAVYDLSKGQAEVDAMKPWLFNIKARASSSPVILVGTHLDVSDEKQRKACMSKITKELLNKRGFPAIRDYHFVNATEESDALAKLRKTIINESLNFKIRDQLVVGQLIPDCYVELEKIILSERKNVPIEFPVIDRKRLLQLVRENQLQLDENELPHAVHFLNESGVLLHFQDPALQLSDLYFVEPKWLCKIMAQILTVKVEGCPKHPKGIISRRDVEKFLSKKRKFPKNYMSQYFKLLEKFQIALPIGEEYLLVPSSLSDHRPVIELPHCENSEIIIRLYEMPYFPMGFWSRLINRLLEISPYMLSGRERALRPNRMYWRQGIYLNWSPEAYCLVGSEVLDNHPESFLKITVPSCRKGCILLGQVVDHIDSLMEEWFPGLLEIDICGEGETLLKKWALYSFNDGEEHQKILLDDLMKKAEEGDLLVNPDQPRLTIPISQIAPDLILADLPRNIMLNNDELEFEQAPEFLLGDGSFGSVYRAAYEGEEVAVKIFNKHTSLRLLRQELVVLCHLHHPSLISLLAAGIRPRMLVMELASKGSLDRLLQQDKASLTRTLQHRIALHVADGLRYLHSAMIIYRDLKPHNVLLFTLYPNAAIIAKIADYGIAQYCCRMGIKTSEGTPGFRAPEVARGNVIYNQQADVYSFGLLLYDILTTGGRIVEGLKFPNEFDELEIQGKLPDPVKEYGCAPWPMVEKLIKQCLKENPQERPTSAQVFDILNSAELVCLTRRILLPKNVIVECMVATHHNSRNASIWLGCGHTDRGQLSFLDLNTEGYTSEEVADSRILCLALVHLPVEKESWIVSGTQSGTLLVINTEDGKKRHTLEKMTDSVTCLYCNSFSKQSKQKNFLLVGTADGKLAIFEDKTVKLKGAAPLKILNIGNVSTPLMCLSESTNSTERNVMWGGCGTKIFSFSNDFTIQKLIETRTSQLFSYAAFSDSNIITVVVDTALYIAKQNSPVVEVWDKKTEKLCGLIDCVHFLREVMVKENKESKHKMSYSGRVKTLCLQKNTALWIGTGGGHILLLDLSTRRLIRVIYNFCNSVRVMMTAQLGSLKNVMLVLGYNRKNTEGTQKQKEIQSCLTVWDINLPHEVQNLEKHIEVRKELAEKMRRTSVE
T12 sequence (Q15349 59-318 limits assumed): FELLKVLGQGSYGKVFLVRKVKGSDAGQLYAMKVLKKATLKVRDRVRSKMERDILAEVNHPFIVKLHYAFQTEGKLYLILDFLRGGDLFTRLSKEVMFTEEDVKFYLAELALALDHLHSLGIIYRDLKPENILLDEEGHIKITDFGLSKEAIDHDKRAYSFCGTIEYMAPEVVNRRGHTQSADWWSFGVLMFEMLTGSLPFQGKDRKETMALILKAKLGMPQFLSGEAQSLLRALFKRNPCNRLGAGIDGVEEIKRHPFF

With `CC(C)(C)c1cc(NC(=O)Nc2ccc(Oc3ncnc4[nH]ncc34)c(F)c2)no1` [SKLB-677, 1-(4-(1H-pyrazolo[3,4-d]pyrimidin-4-yloxy)-3-fluorophenyl)-3-(5-tert-butylisoxazol-3-yl)urea], the remaining binding at 10 µM on ERBB2 is 100%; on CSNK2A1, 100%; on DYRK2, 34%; on LRRK2, 52%; at RIOK2, 88%; at PIM1, 26%. Moreover, the remaining binding at 10 µM came to 17% on MYO3B; 75% on TLK1; 37% on TNK2; 13% at HPK1; 50% at PRKCQ; 78% at WEE2. For the same compound, the remaining binding at 10 µM in experiment [1] worked out at 41%; at CSNK1A1L, 68%; on PIK4CB, 52%; at PRKCH, 100%; on CSNK1G2, 26%; at PIP5K2C, 100%. In addition, the half-inhibitory concentration (IC50) in the experiment with Molm-13 and in the experiment on Molm-13 (read-out: Cell viability IC50) was 0.116 nM each time. Moreover, the “average LTC-IC colony numbers of three normal PBMC samples” value in the experiment with normal PBMCs is recorded as “almost not changed”. Moreover, the results for the “average LTC-IC colony numbers of three samples compared with control” value in the experiment with primary AML PBMCs (1 nM) and in the experiment with primary AML PBMCs (10 nM) were 30% and 10%, respectively.

Source of the values: PMC4620497 (Scientific Reports, 2015).
